Laboratory results from paper PMC5410965 (ACS infectious diseases, 2016).

Tests used:
Mtb 20S = Mtb 20S (Mycobacterium tuberculosis, UniProt P9WHT9); details: second-order rate constant for inhibition; substrate Suc-LLVY-AMC; triplicate
[1] = tested on: National Cancer Institute panel of sixty human cancer cell lines; assay: National Cancer Institute panel of sixty human cancer cell lines, growth; assay type: cell-based; details: 10 μM; NCI sixty human cancer cell lines
[2] = tested on: HepG2 human liver carcinoma cell line; assay: Toxicity to HepG2 cells; details: concentrations as high as 50 μM
Mtb 20S versus human 20S = details: human 20S over Mtb 20S; cited from earlier work

Chain of Mtb 20S (P9WHT9 58-291): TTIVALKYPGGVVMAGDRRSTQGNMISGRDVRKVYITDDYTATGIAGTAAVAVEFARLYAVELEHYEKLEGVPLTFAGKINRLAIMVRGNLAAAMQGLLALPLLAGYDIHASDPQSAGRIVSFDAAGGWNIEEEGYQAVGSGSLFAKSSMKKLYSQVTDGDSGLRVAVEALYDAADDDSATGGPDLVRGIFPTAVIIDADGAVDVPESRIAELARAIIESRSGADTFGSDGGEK
Chain of Mtb 20S (P9WHU1 whole entry partner): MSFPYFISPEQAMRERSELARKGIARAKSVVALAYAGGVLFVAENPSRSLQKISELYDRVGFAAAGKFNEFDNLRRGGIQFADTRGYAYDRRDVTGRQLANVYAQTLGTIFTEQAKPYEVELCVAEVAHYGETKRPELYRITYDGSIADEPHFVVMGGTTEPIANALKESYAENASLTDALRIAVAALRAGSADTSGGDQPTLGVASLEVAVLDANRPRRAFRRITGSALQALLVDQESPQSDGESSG

| SMILES | Mtb 20S kin/Ki (Mtb 20S) [M⁻¹ s⁻¹] | mean growth compared to untreated (vehicle) controls [1] [%] | toxicity to HepG2 cells [2] | preference for reversible inhibition of human 20S (Mtb 20S versus human 20S) [fold] |
| --- | --- | --- | --- | --- |
| COC(=O)[C@@H](NC(=O)N[C@H](C(=O)N[C@H]1CCCCNC(=O)/C=C/[C@H](C(C)C)NC1=O)C(C)C)C(C)C [Compound 1, syringolin B methyl ester] | 4.60 | 27 | toxic | – |
| CC(C)C[C@H](NC(=O)[C@H](Cc1ccccc1)NC(=O)c1cnccn1)B(O)O [bortezomib] | – | – | – | 18 |
